Holding throughout (format): biochemical
In one experiment the target is T1, Human factor Xa (Homo sapiens, UniProt P00742).
T1 construct: purchased Enzyme Research Laboratories, South Bend Ind
Description: Xa assay (chromogenic substrate S-2765). The settings on record: reported only as less than or greater than 30 uM; read-out: Factor Xa (II) IC50. In a few lines:
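Chromogenic readout: S-2765 hydrolysis (0.15 mM) by 0.3 nM human FXa was monitored at 405 nm after 60 min at room temperature, with a time-zero background read. Buffer: 50 mM Tris-HCl, pH 8.0, 100 mM NaCl, 0.1% BSA. Inhibition is relative to buffer-only controls.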

Another experiment concerns the target T2, Human thrombin (Homo sapiens, UniProt P00734).
T2 construct: converts prothrombin (II) to thrombin (IIa); purchased Calbiochem, La Jolla, Calif
Description: Thrombin assay (chromogenic substrate). The settings on record: reported only as less than or greater than 30 uM; read-out: Thrombin (II) IC50. The method in brief: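 Percent inhibition derived by comparing OD405 nm of compound-treated and control samples. Thrombin cleavage of a p-nitroanilide chromogenic substrate provides the signal.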

For experiment [1], the target named is T3, recombinant soluble tissue factor and recombinant human factor VIIa (TF-VIIa) (Homo sapiens, UniProt P08709).
T3 construct: conversion of coagulation factor VII to VIIa by factor Xa; purchased American Diagnostica, Greenwich CT; host or cells: soluble TF made in house in E. coli
Description: TF-VIIa assay (chromogenic substrate hydrolysis). The settings on record: reported only as less than or greater than 0.1 uM. In a few lines: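 Chromogenic read at OD405, compared with control for percent inhibition. Substrate N-methylsulfonyl-D-phe-gly-arg-p-nitroaniline at 0.4 mM is cleaved by recombinant human VIIa (2 nM) complexed with soluble TF (100 nM). Buffer: pH 8.0 Tris-HCl 50 mM, CaCl2 5 mM, NaCl 100 mM, BSA 0.1%.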

Experiment [2] concerns Normal human pooled plasma. Description: Prothrombin time (PT) clotting assay. The settings on record: concentration at which prothrombin time is prolonged by 2x normal, reported as less than or greater than 50 uM. The method in brief: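 Normal human pooled plasma incubated with 100 uM compound or saline, then thromboplastin (human tissue factor) added and clotting time recorded in a coagulation machine. Compounds exceeding 3× normal PT (11.0 s) are titrated to find the concentration doubling PT.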

T3 sequence (P08709 213-466 limits assumed): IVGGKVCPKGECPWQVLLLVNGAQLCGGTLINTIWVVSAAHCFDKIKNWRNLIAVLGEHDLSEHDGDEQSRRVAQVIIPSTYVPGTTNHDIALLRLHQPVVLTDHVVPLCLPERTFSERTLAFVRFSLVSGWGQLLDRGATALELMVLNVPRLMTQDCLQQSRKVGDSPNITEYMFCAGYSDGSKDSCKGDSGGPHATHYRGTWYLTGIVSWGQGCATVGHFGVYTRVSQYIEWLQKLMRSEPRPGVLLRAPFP
T3 sequence (P08709 61-212 limits assumed): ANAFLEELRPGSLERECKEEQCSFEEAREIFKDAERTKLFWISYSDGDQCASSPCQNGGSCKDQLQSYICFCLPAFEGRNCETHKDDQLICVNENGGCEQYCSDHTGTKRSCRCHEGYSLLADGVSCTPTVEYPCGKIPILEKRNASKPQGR
T3 sequence (P13726 33-251 partner limits assumed): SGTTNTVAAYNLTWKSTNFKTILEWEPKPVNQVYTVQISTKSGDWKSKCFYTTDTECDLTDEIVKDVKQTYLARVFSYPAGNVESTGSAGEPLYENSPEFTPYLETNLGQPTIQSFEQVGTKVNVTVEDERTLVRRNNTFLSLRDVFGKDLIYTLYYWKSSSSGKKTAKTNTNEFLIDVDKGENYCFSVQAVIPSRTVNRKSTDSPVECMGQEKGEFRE
T1 sequence (P00742 235-488 limits assumed): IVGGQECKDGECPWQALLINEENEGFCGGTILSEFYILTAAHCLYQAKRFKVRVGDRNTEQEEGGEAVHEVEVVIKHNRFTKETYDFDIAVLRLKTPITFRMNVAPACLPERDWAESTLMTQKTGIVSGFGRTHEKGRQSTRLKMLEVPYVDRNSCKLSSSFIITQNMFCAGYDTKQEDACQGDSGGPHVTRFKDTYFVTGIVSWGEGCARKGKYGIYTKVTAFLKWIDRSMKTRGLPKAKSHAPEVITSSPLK
T1 sequence (P00742 41-179 limits assumed): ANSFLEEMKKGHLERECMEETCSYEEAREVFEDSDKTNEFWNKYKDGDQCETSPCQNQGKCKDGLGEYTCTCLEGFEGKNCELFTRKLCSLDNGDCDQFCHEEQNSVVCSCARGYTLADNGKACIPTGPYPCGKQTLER

Broadly, the IC50 is the concentration that inhibits the measured activity by half. On to `CC[C@H](C)NC(=O)c1cc(N)cc(-c2cnc(NC(C)C)c(=O)n2CC(=O)NCc2c(O)cc(C(=N)N)cc2O)c1` [Example 193], for which the 50% inhibitory concentration (IC50) is greater than 30 µM at Human factor Xa, greater than 30 µM at Human thrombin and greater than 0.1 µM in experiment [1]. Moreover, in experiment [2], the “PT (Prothrombin time) 2xPT” value was less than 50.0 µM.
For the compound `CC[C@@H](C)NC(=O)c1cc(N)cc(-c2cnc(NC(C)C)c(=O)n2CC(=O)NCc2ccc(C(=N)N)cc2)c1` [Example 72], the IC50 on Human factor Xa is greater than 30 µM; at Human thrombin it was less than 30 µM; in experiment [1] it was less than 0.1 µM. Also, in experiment [2], the “PT (Prothrombin time) 2xPT” value is less than 50.0 µM.
For `CC(C)CCC(=O)Nc1cc(N)cc(-c2cnc(NC(C)C)c(=O)n2CC(=O)NCc2ccc(C(=N)N)cc2)c1.O=C(O)C(F)(F)F.O=C(O)C(F)(F)F` [Example 135], in that order: greater than 30 µM, less than 30 µM, less than 0.1 µM and less than 50.0 µM.
The corresponding values for `CC(C)Nc1ncc(-c2cc(N)cc(C(F)(F)F)c2)n(CC(=O)NCc2ccc(C(=N)N)s2)c1=O` [Example 67] are less than 30 µM, greater than 30 µM, less than 0.1 µM and less than 50.0 µM.
As to `CC(C)Nc1ncc(-c2cc(N)cc(C(=O)NC3CCC3)c2)n(CC(=O)NCc2ccc(C(=N)N)cc2)c1=O.O=C(O)C(F)(F)F.O=C(O)C(F)(F)F` [Example 15], the results for the 50% inhibitory concentration (IC50) (on Human factor Xa; at Human thrombin; in experiment [1]) were greater than 30 µM, less than 30 µM and less than 0.1 µM, respectively. Besides, the “PT (Prothrombin time) 2xPT” value in experiment [2] was less than 50.0 µM.
Turning to `CCC(C)Oc1cc(N)cc(-c2cnc(NC(C)C)c(=O)n2CC(=O)NCc2ccc(C(=N)N)cc2)c1.O=C(O)C(F)(F)F.O=C(O)C(F)(F)F` (stereo not drawn) [Example 224], the values for the IC50 (at Human factor Xa; at Human thrombin; in experiment [1]) were greater than 30 µM, greater than 30 µM and less than 0.1 µM, respectively. Moreover, in experiment [2], the “PT (Prothrombin time) 2xPT” value is less than 50.0 µM.
For `CCC(C(=O)Nc1cc(N)cc(-c2cnc(NC(C)C)c(=O)n2CC(=O)NCc2ccc(C(=N)N)cc2)c1)c1ccccc1.O=C(O)C(F)(F)F.O=C(O)C(F)(F)F` (stereo not drawn) [Example 143], the values for the half-inhibitory concentration (IC50) (on Human factor Xa; on Human thrombin; in experiment [1]) were greater than 30 µM, less than 30 µM and less than 0.1 µM, respectively. In experiment [2], the “PT (Prothrombin time) 2xPT” value is less than 50.0 µM.
For `CC(C)Nc1ncc(-c2cc(N)cc(C(=O)N[C@@H](C(=O)O)c3ccccc3)c2)n(CC(=O)NCc2ccc(C(=N)N)cc2)c1=O` [Example 83], in that order: greater than 30 µM, greater than 30 µM, less than 0.1 µM and less than 50.0 µM.
The corresponding values for `CC(C)Nc1ncc(-c2cc(N)cc(C(=O)NCc3cccnc3)c2)n(CC(=O)NCc2ccc(C(=N)N)cc2)c1=O` [Example 61] are greater than 30 µM, greater than 30 µM, less than 0.1 µM and less than 50.0 µM.
The corresponding values for `CC(C)Nc1ncc(-c2cc(N)cc(OCCc3ccccc3)c2)n(CC(=O)NCc2ccc(C(=N)N)cc2)c1=O.O=C(O)C(F)(F)F.O=C(O)C(F)(F)F` [Example 211] are greater than 30 µM, greater than 30 µM, less than 0.1 µM and less than 50.0 µM.
With `CC(C)Nc1ncc(-c2cc(N)cc(NS(=O)(=O)c3cccs3)c2)n(CC(=O)NCc2ccc(C(=N)N)cc2)c1=O` [Example 91], the IC50 on Human factor Xa was greater than 30 µM; on Human thrombin it was greater than 30 µM; in experiment [1] it was less than 0.1 µM. Moreover, the “PT (Prothrombin time) 2xPT” value in experiment [2] was less than 50.0 µM.
`CC(C)Nc1ncc(-c2cc(N)cc(S(=O)(=O)CC3CCCCC3)c2)n(CC(=O)NCc2ccc(C(=N)N)cc2)c1=O.O=C(O)C(F)(F)F.O=C(O)C(F)(F)F` [Example 233]: the half-maximal inhibitory concentration (IC50) is greater than 30 µM at Human factor Xa, greater than 30 µM at Human thrombin and less than 0.1 µM in experiment [1]. For the same compound, the “PT (Prothrombin time) 2xPT” value in experiment [2] was less than 50.0 µM.
Consider `CC(C)Nc1ncc(-c2cc(N)cc(NC(=O)CCc3ccccc3)c2)n(CC(=O)NCc2ccc(C(=N)N)cc2)c1=O` [Example 106], for which the results for the IC50 (on Human factor Xa; on Human thrombin; in experiment [1]) were greater than 30 µM, greater than 30 µM and less than 0.1 µM, respectively. For the same compound, the “PT (Prothrombin time) 2xPT” value in experiment [2] is less than 50.0 µM.
As for `CC(C)Nc1ncc(-c2cc(N)cc(C(=O)NCc3cc(C(F)(F)F)cc(C(F)(F)F)c3)c2)n(CC(=O)NCc2ccc(C(=N)N)cc2)c1=O` [Example 59], the IC50 was greater than 30 µM on Human factor Xa, greater than 30 µM on Human thrombin and greater than 0.1 µM in experiment [1]. Also, the “PT (Prothrombin time) 2xPT” value in experiment [2] is greater than 50.0 µM.
Turning to `COC(=O)CCNC(=O)c1cc(N)cc(-c2cnc(NC(C)C)c(=O)n2CC(=O)NCc2ccc(C(=N)N)cc2)c1` [Example 165], the IC50 at Human factor Xa is greater than 30 µM; on Human thrombin, greater than 30 µM; in experiment [1] it was less than 0.1 µM. Moreover, in experiment [2], the “PT (Prothrombin time) 2xPT” value is less than 50.0 µM.
As to `CC(C)Nc1ncc(-c2cc(N)cc(C(=O)O)c2)n(CC(=O)NCc2ccc(C(=N)N)cc2)c1=O.O=C(O)C(F)(F)F` [Example 118], the values for the half-inhibitory concentration (IC50) (at Human factor Xa; on Human thrombin; in experiment [1]) were greater than 30 µM, greater than 30 µM and less than 0.1 µM, respectively. Further, in experiment [2], the “PT (Prothrombin time) 2xPT” value was less than 50.0 µM.
As to `CC(C)CC(=O)Nc1cc(N)cc(-c2cnc(NC(C)C)c(=O)n2CC(=O)NCc2ccc(C(=N)N)cc2)c1` [Example 112], the values for the half-inhibitory concentration (IC50) (at Human factor Xa; at Human thrombin; in experiment [1]) were greater than 30 µM, less than 30 µM and less than 0.1 µM, respectively. The “PT (Prothrombin time) 2xPT” value in experiment [2] was less than 50.0 µM.
As for `CC(C)Nc1ncc(-c2cc(N)cc(C(=O)NCc3ccc(O)cc3)c2)n(CC(=O)NCc2ccc(C(=N)N)cc2)c1=O.O=C(O)C(F)(F)F` [Example 176], the IC50 was greater than 30 µM at Human factor Xa, greater than 30 µM on Human thrombin and less than 0.1 µM in experiment [1]. The “PT (Prothrombin time) 2xPT” value in experiment [2] was less than 50.0 µM.
For the compound `CC(C)Nc1ncc(-c2cc(N)cc(NCCCc3ccccc3)c2)n(CC(=O)NCc2ccc(C(=N)N)cc2)c1=O` [Example 111], the IC50 was greater than 30 µM on Human factor Xa, greater than 30 µM on Human thrombin and less than 0.1 µM in experiment [1]. Moreover, the “PT (Prothrombin time) 2xPT” value in experiment [2] is less than 50.0 µM.
Consider `CC(C)Nc1ncc(-c2cc(N)cc(S(=O)(=O)CC(C)(C)C)c2)n(CC(=O)NCc2ccc(C(=N)N)cc2)c1=O.O=C(O)C(F)(F)F.O=C(O)C(F)(F)F` [Example 228], for which the values for the IC50 (at Human factor Xa; on Human thrombin; in experiment [1]) were greater than 30 µM, greater than 30 µM and less than 0.1 µM, respectively. Further, in experiment [2], the “PT (Prothrombin time) 2xPT” value is less than 50.0 µM.
On to `CC(C)Nc1ncc(-c2cc(N)cc(NCCC(C)c3ccccc3)c2)n(CC(=O)NCc2ccc(C(=N)N)cc2)c1=O` (stereo not drawn) [Example 101], for which the IC50 is greater than 30 µM at Human factor Xa, less than 30 µM on Human thrombin and less than 0.1 µM in experiment [1]. Moreover, the “PT (Prothrombin time) 2xPT” value in experiment [2] was less than 50.0 µM.
On to `CC(C)Nc1ncc(-c2cc(N)cc(OCC3CC3)c2)n(CC(=O)NCc2ccc(C(=N)N)cc2)c1=O.O=C(O)C(F)(F)F.O=C(O)C(F)(F)F` [Example 223], for which the IC50 was greater than 30 µM on Human factor Xa, greater than 30 µM on Human thrombin and less than 0.1 µM in experiment [1]. Besides, in experiment [2], the “PT (Prothrombin time) 2xPT” value is less than 50.0 µM.
Consider `CCCC(C)C(=O)Nc1cc(N)cc(-c2cnc(NC(C)C)c(=O)n2CC(=O)NCc2ccc(C(=N)N)cc2)c1` (stereo not drawn) [Example 104], for which the IC50 at Human factor Xa was greater than 30 µM; on Human thrombin, less than 30 µM; in experiment [1] it was less than 0.1 µM. In experiment [2], the “PT (Prothrombin time) 2xPT” value was less than 50.0 µM.
For `CC(C)Nc1ncc(-c2cc(N)cc(OCC3CCCCC3)c2)n(CC(=O)NCc2ccc(C(=N)N)cc2)c1=O.O=C(O)C(F)(F)F.O=C(O)C(F)(F)F` [Example 221], in that order: greater than 30 µM, greater than 30 µM, less than 0.1 µM and greater than 50.0 µM.
For `CCC(C)[C@H](NC(=O)c1cc(N)cc(-c2cnc(NC(C)C)c(=O)n2CC(=O)NCc2ccc(C(=N)N)cc2)c1)C(=O)O` (stereo partly drawn) [Example 85], the IC50 was greater than 30 µM at Human factor Xa, greater than 30 µM on Human thrombin and less than 0.1 µM in experiment [1]. The “PT (Prothrombin time) 2xPT” value in experiment [2] is less than 50.0 µM.
As for `CCOC(=O)c1cc(N)cc(-c2cnc(NC3CC3)c(=O)n2CC(=O)NCc2ccc(C(=N)N)cc2)c1.O=C(O)C(F)(F)F` [Example 207, Ethyl 3-amino-5-[1-[2-({4-[amino(imino)methyl]benzyl}amino)-2-oxoethyl]-5-(cyclopropylamino)-6-oxo-1,6-dihydropyrazin-2-yl]benzoate], the IC50 at Human factor Xa is greater than 30 µM; on Human thrombin, greater than 30 µM; in experiment [1] it was less than 0.1 µM. Besides, the “PT (Prothrombin time) 2xPT” value in experiment [2] is less than 50.0 µM.
Take `COC(=O)[C@@H](NC(=O)c1cc(N)cc(-c2cnc(NC(C)C)c(=O)n2CC(=O)NCc2ccc(C(=N)N)cc2)c1)c1ccccc1` [Example 87]: the values for the 50% inhibitory concentration (IC50) (on Human factor Xa; at Human thrombin; in experiment [1]) were greater than 30 µM, less than 30 µM and less than 0.1 µM, respectively. For the same compound, the “PT (Prothrombin time) 2xPT” value in experiment [2] was less than 50.0 µM.

Values taken from patent US20040106626A1, “6-Membered unsaturated heterocyclic compounds useful for selective inhibition of the coagulation cascade” (Pharmacia Corporation, priority 2001, published 2004).
